Results published in patent US20260041706A1, “MUCUS MEMBRANE FORMULATIONS AND USES THEREOF” (priority 2022, published 2026).
Values joined by “and” are separate entries in the source; they are usually repeats but may differ in a detail not shown here. Equal values may be shown once. Read-outs that look alike come from different tables or passages of the source.

Columns and labels:
[1] = system: human nasal epithelial cell (RPMI-2650)-based monolayer
[2] = system: HKx31 Influenza A virus (H3N2); assay: In vitro neutralization assay with Influenza A (plaque assay in MDCK cells); assay type: cell-based; details: 10 or 60 min incubation; agent evaluated individually
[3] = system: SARS-CoV-2 mNG; assay: In vitro neutralization assay with SARS-CoV-2 (focus-forming assay in Vero E6 cells); assay type: cell-based
[4] = system: Escherichia coli (E. coli); assay: In vitro neutralization assay with bacteria (CFU), E. coli; assay type: cell-based; details: incubation time of 30 min
Experimental: (§1) Neutralization was determined by measuring the bactericidal activity. Each agent was individually incubated with either E. coli or K. pneumoniae for 30 or 60 min, followed by 1-minute centrifugation, and then evaluating the bacterial load in the supernatant using a colony-forming assay.
(§2) An overnight culture of bacteria was prepared in 5 mL tryptic soy broth (TSB, Sigma Aldrich) media. On the day of the experiment, bacteria suspension was adjusted to obtain an OD600 nm=0.2, which corresponds to 10^8 CFU/mL. […] After incubation, the sample/bacteria mixture was 10-fold serially diluted in 1×PBS, and 10 mL of each dilution was plated onto pre-poured LB (Luria Broth, HiMedia Laboratories Pvt Ltd) agar plates followed by an incubation of 16-18 h at 37° C., 5% CO2. The plates were then counted for CFUs.

[5] = system: Klebsiella pneumoniae; assay: In vitro neutralization assay with bacteria (CFU), K. pneumoniae; assay type: cell-based; details: incubation time of 30 min
Experimental: as §1, §2

[6] = for fluorescence intensity (droplet capture) relative to mucus or biopolymer mixture without surfactant: surfactant 0.05% w/V in gellan (0.2% w/v) and pectin (0.75% w/v) mixture
[7] = mouse, in vivo
Text: (§3) To test our hypothesis, we compared nasal residence time of DiR-loaded mixture of gellan and pectin without or with surfactants.
(§4) In vivo biodistribution and nasal residence. Nasal residence time of the formulation was determine in mice. […] Mice were euthanized at different time points and nasal cavity was harvested and imaged using IVIS (Bruker's In-Vivo Xtreme optical and x-ray in vivo imaging system) at an excitation and emission wavelength of 680/700 nm. Vital organs such as lung, liver, spleen, kidney, and heart, were also imaged at 2 and 24 h time points. To determine the mechanism of long residence time, animals were intranasally instilled with DiR-mixed gellan (0.02% w/v) and pectin (0.75% w/v) mixture without or with BKC and tween-80. After 8 h, animals were euthanized to harvest and image the nasal cavity using Perkin Elmer IVIS Lumina II and the total flux was expressed in (p/sec/m^2/sr).

[8] = system: RPMI 2650 cells; details: 0.5% w/v; 24 or 48 h incubation
[9] = In vivo biodistribution and nasal residence (DiR fluorescence, IVIS); details: 8 h post-nasal administration, DiR-loaded
Text: as §3, §4

Row | Substance | change in TEER (in words) ([1]; Triton-X 0.1% w/v, negative control) | reduction in IAV viral titer in host cells in comparison to PBS [2] [log fold] | minimum concentration required to achieve >4-log fold (>99.99%) reduction in SARS-CoV-2 viral load [3] [% w/v] | reduction in SARS-CoV-2 viral load in host cells ([3]; 10 or 60 min incubation, agent evaluated individually) | neutralization efficiency of BKC against SARS-CoV-2 in presence of gellan or pectin ([3]; BKC 0.01% w/v, gellan 0.2% w/v or pectin 0.75% w/v, 10 min) | reduction in colony-forming units (CFU) of E. coli [4] [log fold] | reduction in colony-forming units (CFU) of Klebsiella pneumoniae [5] [log fold] | capture of respiratory droplets (in words) ([6]; BKC at 0.01% w/v) | fluorescence intensity (droplet capture) relative to mucus or biopolymer mixture without surfactant [6] [fold] | surfactant concentration above which fluorescence intensity (droplet capture) increased significantly ([6]; surfactant combined with gellan/pectin mixture, vs mucus or only biopolymer mixture) | nasal residence of gellan and pectin mixture on addition of surfactant [7] | transient dip in TEER immediately after addition ([1]; irrespective of the concentrations evaluated) | time for TEER to reverse to original value after replacing with fresh medium ([1]; medium replaced at 4 h) | metabolic activity of RPMI-2650 cells [8] | nasal residence of gellan and pectin mixture on addition of surfactant [9]
1 | Triton X-100 [Triton-X, reference compound] | permanent change in the TEER | – | – | – | – | – | – | – | – | – | – | – | – | – | –
2 | benzalkonium chloride [BKC] | – | 1 | 0.01 | 5 log fold and > 99.99% | not impacted | 4 | 7 | didn't increase the capture of respiratory droplets | 4 | higher than 0.01 % w/v | significantly enhanced the nasal residence | – | – | – | –
3 | polyoxyethylene 20 sorbitan monooleate [Tween-80] | – | 1 | – | – | – | – | – | – | 4 | – | – | less than 15% | less than 1 h | significant reduction in the metabolic activity | significantly enhanced the nasal residence
